# From patent US9023789B2, “Amylin analogs and pharmaceutical compositions thereof” (Novo Nordisk A/S, priority 2012, dated 2015)
# Numbered stars: 1 amine (or outer) side, 2 acyl side, 3 side chain; on linkers, the order of the positions; unused ones are H or OH. Bridge positions count the residues as written; N and C are the ends. Side chains are listed from the residue outwards. Peptide text beside a SMILES is read from it. * marks the point of attachment. C20 diacid = O=C(O)CCCCCCCCCCCCCCCCCCC(=O)*; γGlu = O=C(O)[C@H](CCC(=O)[*:2])N[*:1]; AEEA = NCCOCCOCC(=O)O
# Key:
# [1] = target: T1, rat amylin receptor (rat calcitonin receptor + rat RAMP 3) (Rattus norvegicus, UniProt P32214+Q9JJ73); assay: ASSAY (VI) binding to the rat amylin receptor; conditions: for IC50: binding to rat amylin receptor, read-out: rAmylin-R bind IC50
# T1 construct: expressed in transfected cells; host or cells: BHK tk'ts 13 (transient, FuGENE 6), membranes
# T1 sequence (P32214 25-479 isoform P32214-2 limits assumed): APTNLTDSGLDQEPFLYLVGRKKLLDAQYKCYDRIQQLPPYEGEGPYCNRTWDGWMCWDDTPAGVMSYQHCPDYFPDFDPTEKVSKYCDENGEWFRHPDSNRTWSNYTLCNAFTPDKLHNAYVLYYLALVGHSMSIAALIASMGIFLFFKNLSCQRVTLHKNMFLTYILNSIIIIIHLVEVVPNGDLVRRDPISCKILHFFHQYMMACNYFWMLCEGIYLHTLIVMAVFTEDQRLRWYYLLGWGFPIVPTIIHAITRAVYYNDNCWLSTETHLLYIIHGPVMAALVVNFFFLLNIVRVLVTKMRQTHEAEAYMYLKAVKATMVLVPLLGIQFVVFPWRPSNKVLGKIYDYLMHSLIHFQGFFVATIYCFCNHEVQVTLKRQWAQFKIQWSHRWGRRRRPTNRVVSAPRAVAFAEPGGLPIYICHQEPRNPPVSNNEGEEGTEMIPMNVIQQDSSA
# T1 sequence (Q9JJ73 23-147 partner): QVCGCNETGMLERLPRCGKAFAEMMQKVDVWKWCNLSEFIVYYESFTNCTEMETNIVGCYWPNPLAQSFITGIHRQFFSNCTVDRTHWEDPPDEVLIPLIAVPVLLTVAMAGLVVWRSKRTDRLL
# In short: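 The cell-membrane assay assessed binding at the rat amylin receptor. BHK tk′ts 13 cells were transfected transiently with rat calcitonin receptor, with FuGENE® 6 (Roche) as the transfection reagent, used per the manufacturer's recommendations. Approximately 48 hours after transfection the cells were harvested, and membranes were prepared for measuring binding.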
# [2] = tested on: Sprague Dawley (SD) rats; assay: ASSAY (I) efficacy testing on appetite (food intake) using an ad libitum fed rat model; type: in vivo; conditions: rat, 30 nmol/kg
# In short: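 Individual food consumption was logged each hour up to 7 h and again at 24 h, occasionally 48 h, with Grubbs-test outliers removed. Each 200–250 g Sprague Dawley rat, free-feeding in its home cage under reversed lighting, received a single ip, po or sc dose of 0.01–3 mg/kg at lights-off, alongside a vehicle group.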
# [3] = target: T2, rat calcitonin receptor (Rattus norvegicus, UniProt P32214); assay: ASSAY (VIII) binding to the rat calcitonin receptor; conditions: Table 7, read-out: rCTR bind IC50
# T2 construct: expressed in transfected cells; host or cells: BHK tk'ts 13 (transient, FuGENE 6), membranes
# T2 sequence (P32214 25-479 isoform P32214-2 limits assumed): T1 sequence (P32214 25-479 isoform P32214-2 limits assumed)
# In short: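 Receptor source: membranes from transiently transfected BHK tk′ts 13 cells expressing rat calcitonin receptor, collected roughly 48 hours after transfection.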
# [4] = Table 7, rat binding selectivity, rCTR IC50 / rAmylin-R IC50
# [5] = Table 7a (preferred compounds), rat binding selectivity, rCTR IC50 / rAmylin-R IC50
# [6] = ratio of rCTR bind IC50 to rAmylin-R bind IC50
Compound,IC50 ([1]; Table 7) [nM],"Ratio rCT/rAmylin binding [1, 4]","Ratio rCT/rAmylin binding [1, 5]","Ratio rCT/rAmylin binding [1, 6]",IC50 [3] [nM],Food intake reduction 0-24 h 30 nmol/kg (%) [2] [%],Food intake reduction 24-48 h 30 nmol/kg (%) [2] [%]
CC[C@H](C)[C@H](NC(=O)[C@H](C)NC(=O)CNC(=O)[C@H](Cc1ccccc1)NC(=O)[C@H](CC(N)=O)NC(=O)[C@@H]1CCCN1C(=O)[C@H](CO)NC(=O)[C@H](CO)NC(=O)[C@H](Cc1c[nH]cn1)NC(=O)[C@H](CCCNC(=N)N)NC(=O)[C@H](CC(C)C)NC(=O)[C@H](Cc1ccccc1)NC(=O)[C@H](CC(N)=O)NC(=O)[C@H](C)NC(=O)[C@H](CC(C)C)NC(=O)[C@H](CCCNC(=N)N)NC(=O)[C@H](CCC(N)=O)NC(=O)[C@@H](NC(=O)[C@H](C)NC(=O)[C@@H]1CSSC[C@H](NC(=O)[C@H](CCCCN)NC(=O)CC[C@H](NC(=O)CCCCCCCCCCCCCCCCCCC(=O)O)C(=O)O)C(=O)N[C@@H](CC(N)=O)C(=O)N[C@@H]([C@@H](C)O)C(=O)N[C@@H](C)C(=O)N[C@@H]([C@@H](C)O)C(=O)N1)[C@@H](C)O)C(=O)N1CCC[C@H]1C(=O)N[C@@H](CO)C(=O)N[C@@H](CO)C(=O)N[C@H](C(=O)N[C@@H](CC(N)=O)C(=O)N[C@H](C(=O)NCC(=O)N[C@@H](CCCNC(=N)N)C(=O)N[C@@H](CC(N)=O)C(=O)N[C@H](C(=O)N[C@@H](Cc1ccc(O)cc1)C(N)=O)[C@@H](C)O)C(C)C)[C@@H](C)O [Example 39] ({C20 diacid-γGlu}-KCNTATCATQRLANFLRHSSPNFGAIPSSTNVGRNTY-NH2; disulfide 2-7),1.77,54.5,54.5,54.5,96.4,36,8
CC[C@H](C)[C@H](NC(=O)[C@H](C)NC(=O)CNC(=O)[C@H](Cc1ccccc1)NC(=O)[C@H](CC(N)=O)NC(=O)[C@@H]1CCCN1C(=O)[C@H](CO)NC(=O)[C@H](CO)NC(=O)[C@H](Cc1c[nH]cn1)NC(=O)[C@H](CCCNC(=N)N)NC(=O)[C@H](CC(C)C)NC(=O)[C@H](Cc1ccccc1)NC(=O)[C@H](CC(N)=O)NC(=O)[C@H](C)NC(=O)[C@H](CC(C)C)NC(=O)[C@H](CCCNC(=N)N)NC(=O)[C@H](CCC(N)=O)NC(=O)[C@@H](NC(=O)[C@H](C)NC(=O)[C@@H]1CSSC[C@H](NC(=O)[C@H](CCCCN)NC(=O)CC[C@H](NC(=O)CCCCCCCCCCCCCCCCCCC(=O)O)C(=O)O)C(=O)N[C@@H](CC(N)=O)C(=O)N[C@@H]([C@@H](C)O)C(=O)N[C@@H](C)C(=O)N[C@@H]([C@@H](C)O)C(=O)N1)[C@@H](C)O)C(=O)N1CCC[C@H]1C(=O)N[C@@H](CO)C(=O)N[C@@H](CO)C(=O)N[C@H](C(=O)N[C@@H](CC(N)=O)C(=O)N[C@H](C(=O)NCC(=O)N[C@@H](Cc1c[nH]cn1)C(=O)N[C@@H](CC(N)=O)C(=O)N[C@H](C(=O)N[C@@H](Cc1ccc(O)cc1)C(N)=O)[C@@H](C)O)C(C)C)[C@@H](C)O [Example 40],1.5,46.2,46.2,46.2,69.2,51,26
CC[C@H](C)[C@H](NC(=O)[C@H](C)NC(=O)CNC(=O)[C@H](Cc1ccccc1)NC(=O)[C@H](CC(N)=O)NC(=O)[C@@H]1CCCN1C(=O)[C@H](CO)NC(=O)[C@H](CO)NC(=O)[C@H](Cc1c[nH]cn1)NC(=O)[C@H](CCCNC(=N)N)NC(=O)[C@H](CC(C)C)NC(=O)[C@H](Cc1ccccc1)NC(=O)[C@H](CC(N)=O)NC(=O)[C@H](C)NC(=O)[C@H](CC(C)C)NC(=O)[C@H](CCCNC(=N)N)NC(=O)[C@H](CCC(N)=O)NC(=O)[C@@H](NC(=O)[C@H](C)NC(=O)[C@@H]1CSSC[C@H](NC(=O)[C@H](CCCNC(=N)N)NC(=O)[C@@H](N)CCCCNC(=O)COCCOCCNC(=O)CC[C@H](NC(=O)CCCCCCCCCCCCCCCCCCC(=O)O)C(=O)O)C(=O)N[C@@H](CC(N)=O)C(=O)N[C@@H]([C@@H](C)O)C(=O)N[C@@H](C)C(=O)N[C@@H]([C@@H](C)O)C(=O)N1)[C@@H](C)O)C(=O)N1CCC[C@H]1C(=O)N[C@@H](CO)C(=O)N[C@@H](CO)C(=O)N[C@H](C(=O)N[C@@H](CC(N)=O)C(=O)N[C@H](C(=O)NCC(=O)N[C@@H](CO)C(=O)N[C@@H](Cc1c[nH]cn1)C(=O)N[C@H](C(=O)N[C@@H](Cc1ccc(O)cc1)C(N)=O)[C@@H](C)O)C(C)C)[C@@H](C)O [Example 45] (H-K([AEEA-γGlu-C20 diacid])RCNTATCATQRLANFLRHSSPNFGAIPSSTNVGSHTY-NH2; disulfide 3-8 (inferred)),0.623,67.1,67.1,67.1,41.8,27,3

# The next molecules have a lower IC50 ([1]; Table 7) than those just listed; values first:
IC50 ([1]; Table 7) [nM],"Ratio rCT/rAmylin binding [1, 4]","Ratio rCT/rAmylin binding [1, 5]","Ratio rCT/rAmylin binding [1, 6]",IC50 [3] [nM],Compound,Food intake reduction 0-24 h 30 nmol/kg (%) [2] [%],Food intake reduction 24-48 h 30 nmol/kg (%) [2] [%]
0.203,84.3,84.3,84.3,17.1,CC[C@H](C)[C@H](NC(=O)[C@H](C)NC(=O)CNC(=O)[C@H](Cc1ccccc1)NC(=O)[C@H](CC(N)=O)NC(=O)[C@@H]1CCCN1C(=O)[C@H](CO)NC(=O)[C@H](CO)NC(=O)[C@H](Cc1c[nH]cn1)NC(=O)[C@H](CCCNC(=N)N)NC(=O)[C@H](CC(C)C)NC(=O)[C@H](Cc1ccccc1)NC(=O)[C@H](CC(N)=O)NC(=O)[C@H](C)NC(=O)[C@H](CC(C)C)NC(=O)[C@H](CCCNC(=N)N)NC(=O)[C@H](CCC(N)=O)NC(=O)[C@@H](NC(=O)[C@H](C)NC(=O)[C@@H]1CSSC[C@H](NC(=O)[C@H](CCCNC(=N)N)NC(=O)CNC(=O)CC[C@H](NC(=O)CCCCCCCCCCCCCCCCCCC(=O)O)C(=O)O)C(=O)N[C@@H](CC(N)=O)C(=O)N[C@@H]([C@@H](C)O)C(=O)N[C@@H](C)C(=O)N[C@@H]([C@@H](C)O)C(=O)N1)[C@@H](C)O)C(=O)N1CCC[C@H]1C(=O)N[C@@H](CO)C(=O)N[C@@H](CO)C(=O)N[C@H](C(=O)N[C@@H](CC(N)=O)C(=O)N[C@H](C(=O)NCC(=O)N[C@@H](CO)C(=O)N[C@@H](Cc1c[nH]cn1)C(=O)N[C@H](C(=O)N[C@@H](Cc1ccc(O)cc1)C(N)=O)[C@@H](C)O)C(C)C)[C@@H](C)O [Example 47] ({C20 diacid-γGlu}-GRCNTATCATQRLANFLRHSSPNFGAIPSSTNVGSHTY-NH2; disulfide 3-8),51,0
0.523,118.6,118.6,118.6,62,CC[C@H](C)[C@H](NC(=O)[C@H](C)NC(=O)CNC(=O)[C@H](Cc1ccccc1)NC(=O)[C@H](CC(N)=O)NC(=O)[C@@H]1CCCN1C(=O)[C@H](CO)NC(=O)[C@H](CO)NC(=O)[C@H](Cc1c[nH]cn1)NC(=O)[C@H](CCCNC(=N)N)NC(=O)[C@H](CC(C)C)NC(=O)[C@H](Cc1ccccc1)NC(=O)[C@H](CCC(=O)O)NC(=O)[C@H](C)NC(=O)[C@H](CC(C)C)NC(=O)[C@H](CCCNC(=N)N)NC(=O)[C@H](CCC(N)=O)NC(=O)[C@@H](NC(=O)[C@H](C)NC(=O)[C@@H]1CSSC[C@H](NC(=O)[C@@H](N)CCCCNC(=O)CC[C@H](NC(=O)CCCCCCCCCCCCCCCCCCC(=O)O)C(=O)O)C(=O)N[C@@H](CC(N)=O)C(=O)N[C@@H]([C@@H](C)O)C(=O)N[C@@H](C)C(=O)N[C@@H]([C@@H](C)O)C(=O)N1)[C@@H](C)O)C(=O)N1CCC[C@H]1C(=O)N[C@@H](CO)C(=O)N[C@@H](CO)C(=O)N[C@H](C(=O)N[C@@H](CC(N)=O)C(=O)N[C@H](C(=O)NCC(=O)N[C@@H](CO)C(=O)N[C@@H](CCCNC(=N)N)C(=O)N[C@H](C(=O)N[C@@H](Cc1ccc(O)cc1)C(N)=O)[C@@H](C)O)C(C)C)[C@@H](C)O [Example 51] (H-K([γGlu-C20 diacid])CNTATCATQRLAEFLRHSSPNFGAIPSSTNVGSRTY-NH2; disulfide 2-7 (inferred); N-terminus assumed),52,30
